{"source": "patent US10238676B2", "about": "“Application of ginsenoside RG3 in preparing medicine for preventing and/or treating dementia, and medicine for treating dementia” (priority 2013, dated 2019)", "key": {"[1]": {"tested_on": "patients with Alzheimer's disease", "test": "Revised Hasegawa dementia scale (HDS-R) scoring of patients with Alzheimer's disease", "format": "in vivo, human", "experimental": "Both groups take medicine for 12 continuous weeks. 2 ml of cerebrospinal fluid is collected by lumbar puncture, and is stored at −80° C., the β-amyloid protein (Aβ) content is determined by using enzyme-linked immunosorbent assay (ELISA). A revised Hasegawa dementia scale (HDS-R) is used to score, and the scores before and after treatment are compared, increasing in scores means validness, and unchanging or decreasing in scores means invalidness. The enumeration data adopts χ^2 test, the comparison of measurement data adopts t-test, all data is processed by adopting SPSS12.0 statistical software.\nAnalysis on the clinical therapeutic effect of the two groups."}, "[2]": {"tested_on": "intracerebral cholinergic nerve system of rat model with Alzheimer's disease", "test": "AChE positive nerve fiber density of cortex and hippocampal formation, rat model with Alzheimer's disease (D-galactose + IBO)", "format": "in vivo, Wistar rats", "conditions": "AD model rats, Huperzine A 0.3 mg/kg/d, 6 weeks", "from_the_text": "60 Wistar rats each of which having the body weight of 300-500 g are randomly divided into 6 groups, with 10 in each group, and the groups are named a preliminary elder normal control group, a preliminary elder AD model group, a positive medicine Huperzine A group, and high-dose, medium-dose and low-dose of Ginsenoside Rg3 topical preparation groups according to different treatment methods, respectively. The rats are bred in separate cages, each holding 4-5 rats, with natural lighting and random drinking and feeding provided. Physiological saline is injected in the abdominal cavity and grain of each rat in the preliminary elder normal control group; Galactose intraperitoneal injection and IBO intracerebral injection are given to all rats in the preliminary elder AD model group, the positive medicine Huperzine A group, and the high-dose, medium-dose and low-dose Ginsenoside Rg3 topical preparation groups; while the rats in the Huperzine A group and the high-dose, medium-dose and low-dose of Ginsenoside Rg3 topical preparation groups are subjected to D-galactose injection for modeling, rat of each group is given Huperzine A 0.3 mg/kg/d and Ginsenoside Rg3 10, 5, 2.5 mg/kg/d respectively. Ginsenoside Rg3 is applied to both sides of the nose of each rat of Ginsenoside Rg3 topical preparation groups. All the rats are subjected to the medicines continuously for 6 weeks and then intracerebral bilateral Meynert nuclei injection is carried out. Reference is made to a rat cerebral stereotaxic atlas for Meynert nuclei localization, and localization coordinates are AP-0.8 mm, Late 2.6 mm and DV 8.2 mm During intracerebral injection, a rat is anesthetized with 3% pentobarbital sodium (30 mg/kg) and then immobilized to a cerebral stereotaxic apparatus, physiological saline dissolved IBO (injection 1 μl for each side containing 5 μg of IBO) or 1 μl normal saline is injected slowly into a Meynert nucleus, each side takes injection for 5 minutes, and needle retaining for 10 minutes, wherein all the rats are subjected to cerebral perfusion with 4% paraformaldehyde after modeling and are then immobilized for 24 hours, and the brain is put in a sucrose phosphate buffer until brain tissue blocks sink, the blocks are frozen in a incubator and serially sectioned to […] in thickness. The sections are subjected to acetycholinesterase (AChE) histochemical staining by methods recommended by Hedreen, et al. Observation is given to the frontal lobe, the parietal lobe, the occipital lobe and the entorhinal cortex (layer II) as well as parts in a hippocampal CA1 region of the hippocampal formation such as a stratum oriens, a stratum radiatum, a stratum lacunosum-moleculare and a stratum moleculare of dentate gyrus for observing their AChE positive nerve fiber densities, and the AChE positive nerve fiber densities are counted with a number of intersections of positive fibers with a standard grid by using a micrometer used for a microscope.\nA significance level a is equal to 0.05."}, "rat blood-brain barrier": {"tested_on": "rat blood-brain barrier", "conditions": "rats drenched with borneolum syntheticum paraffin oil solution; cited from earlier work"}, "[3]": {"conditions": "of 18 patients per group, 12 weeks"}}}
{"smiles": "COc1cc2c(cc1OC)C(=O)C(CC1CCN(Cc3ccccc3)CC1)C2", "note": "(centres unmarked) [Donepezil, donepezil, reference compound]", "values": [{"measurement": "effective rate (patients increased in HDS-R scores)", "setting": "[1]; 18 AD patients per group, Rg3 oral liquid 10 mg/d or donepezil 5 mg/d, 12 weeks", "result": 72.2, "unit": "%"}, {"measurement": "Scores of clinical symptom (HDS-R), post treatment", "setting": "[1]; AD inpatients, n = 18, Rg3 oral liquid 10 mg/d or donepezil 5 mg/d orally, 12 weeks", "result": "17.3 ± 9.6"}, {"measurement": "Scores of clinical symptom (HDS-R), before treatment", "setting": "[1]; AD inpatients, n = 18 per group, baseline", "result": "13.5 ± 4.2^Δ"}, {"measurement": "number of patients constant in scores", "setting": "[1]; [3]", "result": 3}, {"measurement": "number of patients decreased in scores", "setting": "[1]; [3]", "result": 2}, {"measurement": "number of patients increased in scores of clinical symptom", "setting": "[1]; [3]", "result": 13}]}
{"smiles": "C/C=C1\\[C@H]2C=C(C)C[C@]1(N)c1ccc(=O)[nH]c1C2", "note": "[Huperzine, Huperzine A, reference compound]", "values": [{"measurement": "N Entorhinal cortex AchE positive nerve fiber density", "setting": "[2]", "result": "132.4 ± 19.2^# 10^2 · mm^−2"}, {"measurement": "N Frontal lobe AchE positive nerve fiber density", "setting": "[2]", "result": "122.1 ± 16.1^## 10^2 · mm^−2"}, {"measurement": "N Occipital lobe AchE positive nerve fiber density", "setting": "[2]", "result": "131.6 ± 9.0^Δ 10^2 · mm^−2"}, {"measurement": "Parietal lobe AchE positive nerve fiber density", "setting": "[2]", "result": "108.7 ± 15.8^##Δ 10^2 · mm^−2"}, {"measurement": "N Stratum lacunosum-moleculare AchE positive nerve fiber density", "setting": "[2]; hippocampal formation", "result": "83.3 ± 9.6 10^2 · mm^−2"}, {"measurement": "N Stratum moleculare of dentate gyrus AchE positive nerve fiber density", "setting": "[2]; hippocampal formation", "result": "120.0 ± 10.7^# 10^2 · mm^−2"}, {"measurement": "N Stratum oriens AchE positive nerve fiber density", "setting": "[2]; hippocampal formation", "result": "138.7 ± 20.1 10^2 · mm^−2"}, {"measurement": "N Stratum radiatum AchE positive nerve fiber density", "setting": "[2]; hippocampal formation", "result": "121.1 ± 15.2 10^2 · mm^−2"}]}
{"smiles": "CC1(C)C2CCC1(C)C(O)C2", "note": "(centres unmarked) [borneolum syntheticum]", "values": [{"measurement": "time after drench at which tight junction changes start", "setting": "rat blood-brain barrier", "result": 4, "unit": "h"}, {"measurement": "time at which tight junction changes reach peak", "setting": "rat blood-brain barrier", "result": 8, "unit": "h"}, {"measurement": "time at which tight junction returns to normal", "setting": "rat blood-brain barrier", "result": 48, "unit": "h"}]}
